Measurements from publication PMC11247503 (Journal of Medicinal Chemistry, 2024).
Counter-ions that a name gives are not always drawn. Like-named read-outs stand apart in the source and are kept apart here.

Biological target: T1, mouse Spns2 (Mus musculus, UniProt Q91VM4)
T1 construct: expressed in transfected cells; host or cells: HeLa cells (G418-resistant pools)
T1 sequence (Q91VM4 1-549): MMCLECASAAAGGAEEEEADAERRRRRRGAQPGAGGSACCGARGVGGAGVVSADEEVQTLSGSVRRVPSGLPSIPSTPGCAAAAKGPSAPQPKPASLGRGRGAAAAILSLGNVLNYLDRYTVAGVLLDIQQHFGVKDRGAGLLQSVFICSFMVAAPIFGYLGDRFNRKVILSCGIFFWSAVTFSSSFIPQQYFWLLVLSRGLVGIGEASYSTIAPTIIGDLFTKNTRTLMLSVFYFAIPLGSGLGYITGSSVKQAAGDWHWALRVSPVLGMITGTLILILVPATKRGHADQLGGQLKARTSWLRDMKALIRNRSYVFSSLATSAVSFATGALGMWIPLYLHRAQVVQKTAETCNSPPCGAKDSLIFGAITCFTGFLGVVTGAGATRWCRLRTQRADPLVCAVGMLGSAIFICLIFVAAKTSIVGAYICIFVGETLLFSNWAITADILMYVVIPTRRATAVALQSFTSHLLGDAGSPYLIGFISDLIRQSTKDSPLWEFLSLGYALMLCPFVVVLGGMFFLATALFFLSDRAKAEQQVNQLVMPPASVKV
Experiment: HeLa cell S1P release assay (Spns2 inhibition)
Format: cell-based
Conditions: for inhibition at 1 µM / inhibition at 0.3 µM: HeLa; for inhibition at 1 µM: read-out: %Inhib. (Spns2 inhibition, percent decrease in S1P secretion relative to control); for inhibition at 0.3 µM: 0.3 μM inhibitor (Figure 5), read-out: % Inhibition, tail homologation study; for %Inhib. (Spns2 inhibition, percent decrease in S1P secretion relative to control): 1 µM
Description: With a library of analogs of SLB1122168 containing phenylurea, phenylcarbamate, and benzamide as bioisostere of the benzoxazole, we investigated their potential in inhibiting S1P transport using a HeLa cell assay.[36]−[38],[43] Briefly, in this assay, Spns2 is overexpressed whereas the S1P-degrading enzymes (lyase or phosphatases) were blocked with inhibitors.[44],[45] Inhibition of S1P transport is determined by measuring the amount of S1P in the buffer using LC-MS.
This assay was conducted as reported by Kharel et al.[43] Briefly, compounds were assessed in a HeLa cell assay at a 1 μM test concentration, unless noted otherwise. HeLa cells were transfected with a pcDNA3.1 plasmid encoding mouse Spns2, and pools of cells resistant to G418 were selected. S1P catabolic pathways were suppressed by the addition of 4-deoxypyridoxine (1 mM), NaF (2 mM), and Na3VO4 (0.2 mM). After growing cells to near confluence on 12-well tissue culture dishes, growth media was removed, inhibitors were introduced in release media (serum free medium containing 0.2% fatty acid free BSA), and the cells were incubated for 16–18 h at 37 °C. The BSA with bound S1P was concentrated from the release media by TFA-driven precipitation after addition of the d7-S1P internal standard, the S1P extracted from the protein pellet, and quantified by LC-MS/MS. Lower levels of S1P release into the media indicated greater degrees of Spns2 inhibition. Inhibition is reported as the percent decrease in S1P release relative to the control where no inhibitor was introduced.

[1] = 1 μM inhibitor, HeLa cells, S1P in media by LC-MS/MS

inhibition at 1 µM [1] [%]	Structure (SMILES)	other results
59 ± 1	CCCCCCCCCCc1ccc(NC(=O)NC2CNC2)cc1 [11b, 1-(Azetidin-3-yl)-3-(4-decylphenyl)urea 2,2,2-Trifluoroacetate]	–
24 ± 9	CCCCCCCCCCc1ccc(N(C)C(=O)N2CC3CC2CN3)cc1 (stereo not shown) [17b, N-(4-Decylphenyl)-N-methyl-2,5-diazabicyclo[2.2.1]heptane-2-carboxamide Hydrochloride]	–
34 ± 9	CCCCCCCCCCc1ccc(NC(=O)NC2CCNCC2)cc1 [11h, 1-(4-Decylphenyl)-3-(piperidin-4-yl)urea Hydrochloride]	–
13 ± 4	CCCCCCCCCCc1ccc(N(C)C(=O)N2CCNCC2)cc1 [17a, N-(4-Decylphenyl)-N-methylpiperazine-1-carboxamide Hydrochloride]	–
23 ± 1	CCCCCCCCCCc1ccc(C(=S)NCCCN)cc1 [15a, N-(3-Aminopropyl)-4-decylbenzothioamide Hydrochloride]	–
43 ± 4	CCCCCCCCCCc1ccc(NC(=O)N2CCN(C)CC2)cc1 [18a, N-(4-Decylphenyl)-4-methylpiperazine-1-carboxamide Hydrochloride]	–
5 ± 3	CCCCCCCCCCc1ccc(NC(=O)N2CC[N+](C)(C)CC2)cc1 [18b, 4-((4-Decylphenyl)carbamoyl)-1,1-dimethylpiperazin-1-ium Iodide]	–
72 ± 1	CCCCCCCCCCc1ccc(NC(=O)N2CCCNCC2)cc1 [11m, N-(4-Decylphenyl)-1,4-diazepane-1-carboxamide Hydrochloride]	–
59 ± 2	CCCCCCCCCCc1ccc(NC(=O)N2CCC(N)CC2)cc1 [11g, 4-Amino-N-(4-decylphenyl)piperidine-1-carboxamide Hydrochloride]	–
39 ± 4	CCCCCCCCCCc1ccc(C(=O)N(C)CCCN)cc1 [13a, N-(3-Aminopropyl)-4-decyl-N-methylbenzamide Hydrochloride]	–

Continued, compound first:

Structure (SMILES)	inhibition at 1 µM [1] [%]	other results
CCCCCCCCCCc1ccc(C(=O)N(C)[C@@H]2CCCNC2)cc1 [(R)-13c, (R)-4-Decyl-N-Methyl-N-(piperidin-3-yl)benzamide Hydrochloride]	51 ± 2	–
CCCCCCCCCc1ccc(NC(=O)N2CCNCC2)cc1 [20d, N-(4-Nonylphenyl)piperazine-1-carboxamide Hydrogen Chloride]	–	inhibition at 0.3 µM (HeLa cells): 61 ± 4%
CCCCCCCCCCc1ccc(C(=S)N[C@@H]2CCCNC2)cc1 [(R)-15c, (R)-4-Decyl-N-(piperidin-3-yl)benzothioamide Hydrochloride]	47	–
CCCCCCCCCCc1ccc(NC(=O)O[C@@H]2CCCNC2)cc1 [(R)-8d, (R)-Piperidin-3-yl (4-Decylphenyl)carbamate Hydrochloride]	45 ± 3	–
CCCCCCCCCCc1ccc(C(=O)N2CCN[C@@H](C)C2)cc1.Cl [(S)-4i, (S)-(4-Decylphenyl)(3-methylpiperazin-1-yl)methanone Hydrochloride]	–	%Inhib. (Spns2 inhibition, percent decrease in S1P secretion relative to control) [1]: 44 ± 1%; %Inhib. (Spns2 inhibition, percent decrease in S1P secretion relative to control) (1 μM inhibitor, HeLa cells, S1P in media by LC-MS/MS, listed as 4i): 68%
CCCCCCCCCCc1ccc(NC(=O)N[C@@H]2CCNC2)cc1 [(R)-11c, (R)-1-(4-Decylphenyl)-3-(pyrrolidin-3-yl)urea Hydrochloride]	49	–
CCCCCCCCCCc1ccc(C(=O)N2CCNCC2C)cc1 (racemic) [(±)-4j, (4-Decylphenyl)(2-methylpiperazin-1-yl)methanone Hydrochloride]	61 ± 2	–
CCCCCCCCCCc1ccc(C(=O)N[C@@H]2CCCNC2)cc1 [(R)-4e, (R)-4-Decyl-N-(piperidin-3-yl)benzamide Hydrochloride]	73 ± 1	–
CCCCCCCCCCc1ccc(NC(=O)N[C@H]2CCCNC2)cc1 [(S)-11f, (S)-1-(4-Decylphenyl)-3-(piperidin-3-yl)urea Hydrochloride]	78 ± 4	–
CCCCCCCCCCc1ccc(C(=O)N(C)[C@@H]2CCNC2)cc1 [(R)-13b, (R)-4-Decyl-N-methyl-N-(pyrrolidin-3-yl)benzamide Hydrochloride]	21 ± 1	–
CCCCCCc1ccc(NC(=O)N2CCNCC2)cc1 [20a, N-(4-Hexylphenyl)piperazine-1-carboxamide Hydrogen Chloride]	–	inhibition at 0.3 µM (HeLa cells): 19 ± 2%
CCCCCCCCCCc1ccc(C(=O)NCCCN)cc1 [4a, N-(3-Aminopropyl)-4-decylbenzamide Hydrochloride]	39 ± 9	–
CCCCCCCc1ccc(NC(=O)N2CCNCC2)cc1 [20b, N-(4-Heptylphenyl)piperazine-1-carboxamide Hydrogen Chloride]	–	inhibition at 0.3 µM (HeLa cells): 28 ± 5%
CCCCCCCCCCc1ccc(C(=O)N2CC3CC2CN3)cc1 (stereo not shown) [4l, (2,5-Diazabicyclo[2.2.1]heptan-2-yl)(4-decylphenyl)methanone Hydrochloride]	25 ± 2	–
CCCCCCCCCCCCCc1ccc(NC(=O)N2CCNCC2)cc1 [20g, N-(4-Tridecylphenyl)piperazine-1-carboxamide Hydrogen Chloride]	–	inhibition at 0.3 µM (HeLa cells): 27 ± 12%
CCCCCCCCCCc1ccc(NC(=O)N2CC3CCC(C2)N3)cc1 [11k, N-(4-Decylphenyl)-3,8-diazabicyclo[3.2.1]octane-3-carboxamide Hydrochloride]	77	–

Structure (SMILES)	inhibition at 1 µM [1] [%]	other results
CCCCCCCCCCc1ccc(C(=S)N[C@@H]2CCNC2)cc1 [(R)-15b, (R)-4-Decyl-N-(pyrrolidin-3-yl)benzothioamide Hydrochloride]	33 ± 3	–
CCCCCCCCCCc1ccc(C(=O)N[C@@H]2CCNC2)cc1.Cl [(R)-4c, (R)-4-Decyl-N-(pyrrolidin-3-yl)benzamide Hydrochloride]	61 to 66	%Inhib. (Spns2 inhibition, percent decrease in S1P secretion relative to control) [1]: 66 ± 1%
CCCCCCCCCCc1ccc(C(=O)NC2CNC2)cc1 [4b, N-(Azetidin-3-yl)-4-decylbenzamide 2,2,2-Trifluoroacetate]	–	inhibition at 1 µM: 77 ± 1%
CCCCCCCCCCCc1ccc(NC(=O)N2CCNCC2)cc1 [20e, N-(4-Undecylphenyl)piperazine-1-carboxamide Hydrogen Chloride]	–	inhibition at 0.3 µM (HeLa cells): 76 ± 5%
CCCCCCCCCCc1ccc(C(=O)N[C@H]2CCCNC2)cc1 [(S)-4f, (S)-4-Decyl-N-(piperidin-3-yl)benzamide Hydrochloride]	20 ± 3	–
CCCCCCCCCCc1ccc(NC(=O)O[C@H]2CCNC2)cc1 [(S)-8c, (S)-Pyrrolidin-3-yl (4-Decylphenyl)carbamate Hydrochloride]	46	–
CCCCCCCCCCc1ccc(NC(=O)N[C@H]2CCNC2)cc1 [(S)-11d, (S)-1-(4-Decylphenyl)-3-(pyrrolidin-3-yl)urea Hydrochloride]	44 ± 2	–
CCCCCCCCCCc1ccc(C(=O)N2CCNCC2)cc1 [4h, (4-Decylphenyl)(piperazin-1-yl)methanone Hydrochloride]	68 ± 5	–
CCCCCCCCc1ccc(NC(=O)N2CCNCC2)cc1 [20c, N-(4-Octylphenyl)piperazine-1-carboxamide Hydrogen Chloride]	–	inhibition at 0.3 µM (HeLa cells): 48 ± 7%
CCCCCCCCCCc1ccc(N(C)C(=O)N2CC3CCC(C2)N3)cc1 [17c, N-(4-Decylphenyl)-N-methyl-3,8-diazabicyclo[3.2.1]octane-3-carboxamide Hydrochloride]	18 ± 1	–
CCCCCCCCCCc1ccc(NC(=O)N2CCN[C@H](C)C2)cc1 [(R)-11l, (R)-N-(4-Decylphenyl)-3-methylpiperazine-1-carboxamide Hydrochloride]	≥ 80	–
CCCCCCCCCCc1ccc(C(=O)NC2CCNCC2)cc1 [4g, 4-Decyl-N-(piperidin-4-yl)benzamide Hydrochloride]	24 ± 2	–
CCCCCCCCCCc1ccc(NC(=O)N[C@@H]2CCCNC2)cc1 [(R)-11e, (R)-1-(4-Decylphenyl)-3-(piperidin-3-yl)urea Hydrochloride]	86	–
CCCCCCCCCCc1ccc(NC(=O)OC2CCNCC2)cc1 [8f, Piperidin-4-yl (4-Decylphenyl)carbamate Hydrochloride]	51	–
CCCCCCCCCCc1ccc(C(=O)N2CC3CCC(C2)N3)cc1 [4k, (3,8-Diazabicyclo[3.2.1]octan-3-yl)(4-decylphenyl)methanone Hydrochloride]	0	–
